These results are taken from patent US11229664B2, “Treatment of myelosuppression” (priority 2012, dated 2022).

Where “and” joins values, the source holds several entries; their conditions need not be identical. Identical values can stand only once. Like-named read-outs stand apart in the source and are kept apart here.

Data set [1] deals with BxPC-3 pancreas tumor cell line. Put plainly: BxPC-3 human pancreas tumor xenograft model: tumor weight, tumor growth inhibition (TGI). It counts as in vivo, female athymic nude mice. The procedure: Compounds tested in the experiment were as follows. ODSH was made by Pyramid Laboratories, Inc. (Costa Mesa, Calif.). ODSH was provided at a stock concentration of 50 mg/ml and stored at room temperature until use. ODSH was diluted in a 0.9% NaCl solution (B. Braun Medical Inc., Irvine, Calif.) to a concentration of 2.4 mg/ml to deliver 24 mg/kg, in a 10 ml/kg dose volume when administered intravenously. A concentration of 4.8 mg/ml was formulated to deliver a 24 mg/kg dose at a 5 ml/kg dose volume when administered subcutaneously. ODSH was formulated fresh prior to each dose.
Nab-paclitaxel was manufactured by Abraxis BioScience LLC (Bridgewater, N.J.) and diluted in a 0.9% NaCl solution to a concentration of 1.5 mg/ml to deliver 15 mg/kg, in a 10 ml/kg dose volume. All standard agent preparations were made fresh prior to their administration.
BxPC-3 cells were obtained and prepared as follows. The BxPC-3 pancreas tumor cell line was received from American Type Culture Collection (ATCC, Manassas, Va.). Cultures were maintained in RPMI 1640 medium (Hyclone, Logan, Utah) supplemented with 5% fetal bovine serum. The cells were housed in a 5% CO2 atmosphere. The cultures were expanded in tissue culture flasks at a 1:3 split ratio until a sufficient amount of cells were harvested.
BxPC-3 Human Pancreas Tumor Xenograft Model: Female athymic nude mice per treatment condition were inoculated subcutaneously in the right flank with 0.1 ml of a 50% RPMI 1640/50% Matrigel™ (BD Biosciences, Bedford, Mass.) mixture containing a suspension of BxPC-3 tumor cells (approximately 5×10^6 cells/mouse).
Study Director V.1.7.54k (Study Log).
Mean tumor growth inhibition (TGI) was calculated utilizing Formula A below (deaths were not included in the TGI calculations).
All statistical analyses in the xenograft study were performed with GraphPad Prism® v4 software.
A general note: In xenograft studies the graft and the host belong to different species.

The conditions of data set [2]: for Deaths: N = 10 per group.
Procedure: All experiments were conducted on female athymic nude mice (Hsd:Athymic Nude-Foxn1nu) supplied by Harlan (Indianapolis, Ind.). Mice were received at four weeks of age, 12-15 grams in weight, and were acclimated for seven days prior to handling. The mice were housed in microisolator cages (Lab Products, Seaford, Del.) and maintained under specific pathogen-free conditions. All procedures were carried out under appropriate institutional guidelines for animal care.
Seven days following inoculation, tumors were measured using calipers and tumor weight was calculated using the animal study management software. […] Body weights were recorded when the mice were randomized and were taken twice weekly thereafter in conjunction with tumor measurements, on each of Days 1, 4, 8, 11, 15, 18, 22, 26, 30, 33, and 36.
The study was terminated when the vehicle control reached an endpoint of 1500 mg, on Day 36.
Data set [3] has as its system Human ovarian cancer cell line A2780. Put plainly: A2780 human ovarian cancer xenograft model: tumor weight. The data set is classed as in vivo, athymic female mice. On the set-up: key to Mouse status printed in place of tumor weight: FD = Found Dead; TS = Terminal Sacrifice. Conditions: for Mouse status printed in place of tumor weight: Groups 2 and 3. On the procedure: (§1) ODSH (50 mg/mL stock concentration) was made by Pyramid Laboratories, Inc. and stored at room temperature until use. As described further below, ODSH was administered either intravenously (IV), at a dose of 48 mg/kg and volume of 10 mL/kg, or subcutaneously (SC) at a dose of 24 mg/kg and volume of 5 ml/kg. Carboplatin obtained from a clinical supplier was stored at 4° C. until use. Carboplatin was administered by intraperitoneal injection (IP) at a dose of 80 mg/kg and volume of 10 mL/kg. Saline solution (0.9% NaCl) was used as a vehicle control for ODSH and administered by the same routes and in the same volumes as ODSH.
(§2) Human ovarian cancer cell line A2780 was used in the murine xenograft experiments as follows. Approximately 5×10^6 A2780 cells were used per mouse, injected subcutaneously into the right flank in 0.1 mL of 50% Matrigel/50% media. The study was initiated when tumors reached a size of 90-130 mg. 40 mice were used, 10 per treatment regimen. The mice were normal athymic female mice, aged 6-7 weeks, housed in microisolator cages and maintained under pathogen-free conditions. Tumor and body weights were measured three times per week.
(§3) Four treatment groups were studied.

The nature of data set [4]: A2780 xenograft study: body weight. The data set is classed as in vivo, athymic female mice. Conditions: Group 3: 80 mg/kg IP QD 1, 8, 15, individual mice, 80 mg/kg. On the procedure:
as §1, §2, §3

[5] abbreviates: Total deaths on or before Day 26.

`O=C1[O][Pt]2([NH][C@@H]3CCCC[C@H]3[NH]2)[O]C1=O` [Oxaliplatin, reference compound]: in data set [1] (ANOVA with Tukey's Multiple Comparison Test, BxPC-3 xenograft), the “Difference in tumor weight compared to vehicle control, Day 26” value was “No significant difference”. In data set [1] (Day 26, Group 3: oxaliplatin 10 mg/kg IV wkly x4 (alone to Day 26), from Day 26 gemcitabine 80 mg/kg IP + nab-paclitaxel 15 mg/kg IV), the “Tumor weight, Mean” value was determined as 635.0 mg. Also, in data set [1] (Day 26 vs Day 1, compared to vehicle control, BxPC-3 xenograft, ODSH 24 mg/kg BID, oxaliplatin 10 mg/kg, gemcitabine 80 mg/kg (Table 1)), the “TGI (mean tumor growth inhibition), Day 26” value was determined as 8.0%. The “Day 26 Tumor Weight” value in data set [1] (Table 14, treatment administered until Day 26) worked out at 635.0 ± 52.3 mg. The “Average Weight” value is 20.82 g in data set [2] (Day 1), 20.12 g in data set [2] (Day 11) and 20.81 g in data set [2] (Day 15). The “% Weight Loss or Gain” value is on record as −2.02% in data set [2] (Day 4), −0.82% in data set [2] (Day 8), −0.05% in data set [2] (Day 15) and −1.78% in data set [2] (Day 18). This molecule also registered a Deaths in data set [2] (setting [5]) of 0. The “Starting Weight” value in data set [2] (group mean body weight at start, dose, schedule and route per group as in table) worked out at 20.82 g. Moreover, the “Mice with bruising on the tails or abdomen (site of injection)” value in data set [2] (ten mice per group, BxPC-3 xenograft study) was “One mouse”.
Take `N.N.O=C([O-])C1(C(=O)[O-])CCC1.[Pt+2]` [Carboplatin, reference compound]: the “Tumor weight, Mean” value in data set [3] (Day 1) is reported as 107.3 mg; in data set [3] (Day 4), 148.2 mg; in data set [3] (Day 6), 213.0 mg; in data set [3] (Day 8), 356.5 mg; in data set [3] (Day 11) it was 483.1 mg; in data set [3] (Day 14), 719.3 mg. Besides, the “Tumor weight, Mean” value in data set [3] (Day 18) is 984.1 mg; in data set [3] (Day 21) it was 1,327.3 mg; in data set [3] (Day 25), 1,761.3 mg; in data set [3] (Day 28), 2,243.0 mg. In addition, the “Tumor weight, Median” value in data set [3] (Day 1) is 105.6 mg; in data set [3] (Day 4), 144.5 mg; in data set [3] (Day 6), 215.6 mg; in data set [3] (Day 8), 364.2 mg; in data set [3] (Day 11) it was 508.5 mg; in data set [3] (Day 14), 750.3 mg. Moreover, the “Tumor weight, Median” value in data set [3] (Day 18) is given as 1,051.0 mg; in data set [3] (Day 21) it was 1,328.6 mg; in data set [3] (Day 25) it was 1,921.0 mg; in data set [3] (Day 28), 2,461.0 mg. The “Tumor weight, individual mice” value in data set [3] (Day 1, Mouse 1-10) was 104 mg and 105 mg and 106 mg and 110 mg and 113 mg and 116 mg and 127 mg and 94 mg and 96 mg and 102 mg; in data set [3] (Day 4, Mouse 1-10), 108 mg (2×) and 175 mg and 199 mg and 142 mg and 163 mg and 147 mg and 194 mg and 137 mg and 109 mg; in data set [3] (Day 6, Mouse 1-10) it was 114 mg and 264 mg and 239 mg and 223 mg and 300 mg and 208 mg and 256 mg and 200 mg and 157 mg and 169 mg; in data set [3] (Day 8, Mouse 1-10) it was 148 mg and 466 mg and 358 mg and 371 mg and 605 mg and 306 mg and 386 mg and 419 mg and 245 mg and 262 mg; in data set [3] (Day 11, Mouse 1-10) it was 103 mg and 539 mg and 499 mg and 419 mg and 813 mg and 555 mg and 542 mg and 517 mg and 442 mg and 402 mg; in data set [3] (Day 14, Mouse 1-10), 96 mg and 875 mg and 799 mg and 628 mg and 1,093 mg and 795 mg and 975 mg and 587 mg and 706 mg and 640 mg. For the same molecule, the “Tumor weight, individual mice” value in data set [3] (Day 18, Mouse 1-10) was 84 mg and 1,349 mg and 1,218 mg and 713 mg and 1,806 mg and 1,160 mg and 1,168 mg and 942 mg and 730 mg and 671 mg; in data set [3] (Day 21, Mouse 1-10) it was 112 mg and 1,790 mg and 1,596 mg and 834 mg and 2,675 mg and 1,626 mg and 1,439 mg and 1,218 mg and 941 mg and 1,040 mg; in data set [3] (Day 25, Mouse 1-10) it was 2,403 mg and 2,127 mg and 1,109 mg and 1,921 mg and 1,246 mg; in data set [3] (Day 28, Mouse 1-10), 2,877 mg and 2,599 mg and 1,539 mg and 2,461 mg and 1,739 mg. The “Mouse status printed in place of tumor weight” value in data set [3] (Day 25, individual mice) is “TS”; in data set [3] (Day 28, individual mice), “TS”. Moreover, in data set [4] (Day 1 (baseline)), the “Individual weights, Day 1 Weight” value was 23.2 g and 20.6 g and 22.6 g and 21.7 g and 20.7 g and 22.4 g and 19.7 g and 20.3 g and 21.6 g and 22.2 g. For the same molecule, the “Day 4 Weight change” value in data set [4] (Day 4) is −2.6% and −5.3% and −4.4% and −3.2% and 1.9% and −0.4% and −5.6% and −5.9% and −2.3% and −1.8%. Also, in data set [4] (Day 4), the “Individual weights, Day 4 Weight” value was 22.6 g and 19.5 g and 21.6 g and 21.0 g and 21.1 g (2×) and 22.3 g and 18.6 g and 19.1 g and 21.8 g. Also, the “Day 6 Weight change” value in data set [4] (Day 6) was −3.0% (2×) and −4.9% and 1.3% and −1.4% and 3.91% and −0.4% and −4.4% and −3.7% and −3.2%. In addition, in data set [4] (Day 6), the “Individual weights, Day 6 Weight” value is 22.5 g and 19.6 g and 22.9 g and 21.4 g and 21.5 g (2×) and 22.3 g and 19.1 g and 19.4 g and 20.8 g. Further, the “Day 8 Weight change” value in data set [4] (Day 8) was 2.2% (2×) and 0.5% (2×) and 6.2% and 1.4% and 5.3% and 1.5% and −1.0% and −1.4%. Further, the “Individual weights, Day 8 Weight” value in data set [4] (Day 8) is 23.7 g and 20.7 g and 24.0 g and 22.0 g and 23.8 g and 22.9 g and 20.0 g and 20.1 g and 21.3 g and 22.3 g. Besides, the “Day 11 Weight change” value in data set [4] (Day 11) is −7.3% and −4.9% and 0.9% and −5.5% and 2.4% and −3.6% and −5.1% and −6.4% and −11.1% and −7.7%. Also, the “Individual weights, Day 11 Weight” value in data set [4] (Day 11) was 21.5 g and 19.6 g and 22.8 g and 20.5 g (2×) and 21.2 g and 21.6 g and 18.7 g and 19.0 g and 19.2 g. Further, the “Day 14 Weight change” value in data set [4] (Day 14) was −2.2% and 1.0% and 2.7% and −0.5% and 9.7% and 3.1% and −1.5% and −3.0% and −10.6% and −9.5%. In addition, the “Individual weights, Day 14 Weight” value in data set [4] (Day 14) was 22.7 g (2×) and 20.0 g and 23.2 g and 21.6 g and 23.1 g and 19.4 g and 19.7 g and 19.3 g and 20.1 g. Also, in data set [4] (Day 18), the “Day 18 Weight change” value is −4.3% and −1.9% and −5.8% and −10.6% and 6.3% and 4.0% and −8.6% and −7.9% and −17.1% and −9.0%. The “Individual weights, Day 18 Weight” value in data set [4] (Day 18) is 22.2 g and 20.2 g (2×) and 21.3 g and 19.4 g and 22.0 g and 23.3 g and 18.0 g and 18.7 g and 17.9 g. The “Day 21 Weight change” value in data set [4] (Day 21) was −0.4% and 3.9% and −4.9% and −8.3% and 13.5% and 7.1% and −8.6% (2×) and −5.4% and −15.7%. Further, the “Individual weights, Day 21 Weight” value in data set [4] (Day 21) is 23.1 g and 21.4 g and 21.5 g and 19.9 g and 23.5 g and 24.0 g and 18.0 g and 19.2 g and 18.2 g and 20.3 g. In addition, the “Day 25 Weight change” value in data set [4] (Day 25) is 8.3% and −3.5% and −6.9% and −2.0% and −8.1%. The “Individual weights, Day 25 Weight” value in data set [4] (Day 25) is 22.3 g and 21.8 g and 20.2 g and 19.9 g and 20.4 g. Further, the “Day 28 Weight change” value in data set [4] (Day 28) is 11.7% and −1.8% and −2.8% and 3.0% and −8.6%. For the same molecule, the “Individual weights, Day 28 Weight” value in data set [4] (Day 28) is 23.0 g and 22.2 g and 21.1 g and 20.9 g and 20.3 g.
Take `Nc1ccn([C@@H]2O[C@H](CO)[C@@H](O)C2(F)F)c(=O)n1` [Gemcitabine]: the Deaths in data set [2] (setting [5]) was determined as 0. This molecule registered a Deaths in data set [2] (Total deaths on or before Day 36) of 0. Further, in data set [2] (mouse, in vivo), the “Day by which the mice recovered their weight” value was not above 18 days, the “Day on which maximum weight loss was reached” value came to 11 days, the Maximum weight loss turned out to be 8.7% and the “Starting Weight” value is listed as 22.48 g.
